{"source": "patent US10813981B2", "about": "“Saposin B binds the lipofuscin bisretinoid A2E and prevents its enzymatic and photo degradation” (Syracuse University, priority 2017, dated 2020)", "biological_target": "T1, SapB (Homo sapiens, UniProt P07602)", "T1 construct": "made in house; host or cells: E. coli", "T1 sequence (P07602 195-273 limits assumed)": "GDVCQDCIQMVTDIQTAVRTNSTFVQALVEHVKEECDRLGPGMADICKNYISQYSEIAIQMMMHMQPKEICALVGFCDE", "assay": "Fluorescence quenching titration of SapB with ligand (double logarithmic Stern-Volmer analysis)", "type": "binding", "procedure": "A2E and SapB were prepared and purified according to literature reports. To determine the A2E/protein binding stoichiometry, a fluorescence titration was carried out by incrementally adding small amounts of A2E to a solution of SapB (FIG. 2). […] A double logarithmic plot of\nFluorescence quenching measurements were performed on a Varian Cary Eclipse fluorimeter equipped with a QNW Peltier temperature controller. The experiments were conducted at 25.00±0.01° C. in 50 mM phosphate buffer, pH 5.50 or 7.40 using 278 nm excitation wavelength for sapB emission spectra at 325 nm (FIG. 2) or 444 nm excitation for A2E emission at 602 nm (FIG. 3) with excitation and emission monochromators bandwidth of 5 nm each. The fluorescence quenching data were analyzed using OriginLab software version 8.\nThe interaction of SapB (prepared as described above) with a variety of ligands was followed by monitoring the quenching of the fluorescence intensities of the protein's tyrosine residues upon binding (FIG. 12 Panels a-f).\nFor each ligand tested 40 μM SapB in 50 mM phosphate buffer at pH 5.5 was titrated with ligand and quenching was monitored at the fluorescence maxima at 330 nm. […] All of the fluorescence data were analyzed by a double logarithmic Stern-Volmer plot, shown for all ligands, using the emission maxima to determine binding affinity, presented in Table 3, and using the following equation\nMaterials and Methods—Saposin B (SapB) was prepared and purified as described above. Briefly, SapB solutions in this study were prepared in 50 mM phosphate buffer, pH 5.5. […] Ligand solutions were prepared in 100% dimethylformamide (DMF) to a concentration of 2 mM, with the exception of hydoxychloroquine (HCQ), which was prepared in 50 mM phosphate buffer, pH 5.5. […] 4.2. Fluorescence Spectroscopy. Fluorescence quenching measurements were performed on a Varian Cary Eclipse fluorimeter equipped with a QNW Peltier temperature controller. The binding experiments were conducted at 25.00±0.01° C. in 50 mM phosphate buffer, pH 5.5, using 278 nm excitation wavelength for SapB emission spectra at 330 nm (FIG. 1a-f) with excitation and emission monochromators bandwidth of 5 nm each. Temperature sensitive binding experiments were performed between 20.00±0.01 and 40.00±0.01° C. using 278 nm excitation wavelength for SapB emission spectra at 331 nm, with excitation and emission monochromators bandwidth of 5 nm each. The fluorescence quenching data were analyzed using OriginLab software version 8.", "data": [{"smiles": "CC(C=CC1=C(C)CCCC1(C)C)=CC=CC(C)=Cc1cc(C=CC=C(C)C=CC2=C(C)CCCC2(C)C)cc[n+]1CCO", "note": "[A2E, N-retinylidene-N-retinylethanolamine]", "values": [{"measurement": "binding stoichiometry from double logarithmic plot", "result": "~1", "unit": "A2E per SapB dimer"}, {"measurement": "LogKA of binding by SapB", "setting": "40 μM SapB, 50 mM phosphate buffer pH 5.5, average of three runs", "result": 4.680}, {"measurement": "binding affinity (KA), A2E to SapB", "setting": "double logarithmic plot, 50 mM phosphate buffer pH 5.5, 25° C.", "result": "~4e+06", "unit": "M⁻¹"}, {"measurement": "Kd", "setting": "read-out: KD, SapB binds A2E", "result": 25, "unit": "µM"}, {"measurement": "binding stoichiometry, discontinuity of fluorescence quenching at 308 nm", "setting": "titration of SapB with A2E", "result": "~0.5", "unit": "A2E/protein"}]}]}
